The values that follow come from PubChem BioAssay (NCI).

Each structure is given as a SMILES string. Several values for one entry are separate records, joined by “and”; a condition that tells them apart may be missing. Identical values can stand only once.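 Compound exposure: 48 hours, 5 concentrations, 96-well plates. Abbreviation: GI50, concentration required for 50% inhibition of growth. TGI: total growth inhibition.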 Where a SMILES comes first, the peptide text is derived from it. [ ]: non-standard residue; d: D form. Orn = NCCC[CH](N)C(=O)O Some results are limits rather than exact numbers.

Test systems include PC-3 prostate; UACC-257 melanoma; HCT-116 colon; MOLT-4 leukemia; SF-295 CNS; NCI/ADR-RES ovarian; SNB-75 CNS; NCI-H226 lung; CAKI-1 renal; KM12 colon.
Holding throughout (test): growth of human tumour cells (NCI), 48 h

For `Cc1cc(Cl)ccc1Nc1nc(C(F)(F)F)ccc1C(=O)N/N=C/c1c(Cl)cccc1Cl`, the GI50 with PC-3 prostate is 0.268 µM; in the assay on UACC-257 melanoma, 0.393 µM; in the assay on HCT-116 colon it was 0.287 µM; with MOLT-4 leukemia it was 0.157 µM; with SF-295 CNS it was 0.0741 µM; in the assay with NCI/ADR-RES ovarian, 0.445 µM. The GI50 in the assay on SNB-75 CNS is 1.34 µM; with NCI-H226 lung it was 0.243 µM; with CAKI-1 renal, 0.0557 µM; with KM12 colon, 0.254 µM. Besides, the TGI was over 100 µM in the assay on UACC-257 melanoma; 0.597 µM in the assay on MOLT-4 leukemia; 0.376 µM in the assay with SF-295 CNS; over 100 µM in the assay with NCI/ADR-RES ovarian; over 100 µM in the assay with SNB-75 CNS; 1.74 µM with NCI-H226 lung. The TGI was found to be 3.28 µM in the assay on CAKI-1 renal and 1.92 µM with KM12 colon.
For `CCN(CC)CCCC(C)Nc1ccnc2cc(Cl)c(SCc3ccccc3)cc12` (stereo unspecified), the GI50 in the assay with PC-3 prostate is 1.72 µM; in the assay on UACC-257 melanoma, 0.781 µM; with HCT-116 colon it was 0.516 µM; with MOLT-4 leukemia, 0.623 µM; in the assay with SF-295 CNS it was 1.32 µM; in the assay with NCI/ADR-RES ovarian, 1.44 µM. Further, the GI50 is 1.66 µM with SNB-75 CNS, 2.71 µM in the assay with NCI-H226 lung, 1.19 µM with CAKI-1 renal and 1.43 µM in the assay on KM12 colon. The TGI in the assay with PC-3 prostate came to 3.96 µM; in the assay with UACC-257 melanoma, 2.11 µM; with HCT-116 colon, 1.73 µM; in the assay on MOLT-4 leukemia it was 4.14 µM; with SF-295 CNS it was 3.02 µM; in the assay on NCI/ADR-RES ovarian, 3.17 µM. Also, the TGI in the assay with SNB-75 CNS was 3.32 µM; in the assay on NCI-H226 lung, 8.48 µM; in the assay with CAKI-1 renal it was 2.94 µM; in the assay on KM12 colon, 3.96 µM.
As for `CC(C)CC1NC(=O)C(CCCN)NC(=O)C(C(C)C)NC(=O)C2CCCN2C(=O)C(Cc2ccccc2)NC(=O)C(CC(C)C)NC(=O)C(CCCN)NC(=O)C(C(C)C)NC(=O)C2CCCN2C(=O)C(Cc2ccccc2)NC1=O` (stereo unspecified) (cyclo(FPV[Orn]LFPV[Orn]L); configuration not given here), the GI50 in the assay on PC-3 prostate is 0.00703 µM; in the assay with UACC-257 melanoma, 0.00872 µM and 0.0145 µM; with HCT-116 colon, 0.0102 µM and 0.0167 µM; in the assay with MOLT-4 leukemia, 0.0236 µM; in the assay on SF-295 CNS it was 0.00644 µM and 0.0206 µM; with NCI/ADR-RES ovarian, 0.614 µM and 2.14 µM. Besides, the GI50 in the assay on SNB-75 CNS is 0.0103 µM; in the assay with NCI-H226 lung it was 0.0203 µM and 0.0564 µM; in the assay with CAKI-1 renal, 0.564 µM and 1.02 µM; in the assay on KM12 colon, 0.00513 µM. The TGI is 0.14 µM and 1.12 µM with PC-3 prostate; 0.048 µM and 0.0705 µM in the assay with UACC-257 melanoma; 0.122 µM and 0.213 µM with HCT-116 colon; 0.402 µM in the assay with MOLT-4 leukemia; 0.0186 µM and 0.0735 µM in the assay with SF-295 CNS; 5.05 µM and 13.3 µM in the assay with NCI/ADR-RES ovarian. Also, the TGI is 0.149 µM and 0.0637 µM in the assay on SNB-75 CNS; 1.03 µM and 1.92 µM in the assay with NCI-H226 lung; 2.14 µM and 7.23 µM with CAKI-1 renal; 0.363 µM and 1.04 µM in the assay on KM12 colon.
Turning to `CCOC(=O)c1c2c(n3cccc(F)c13)C(=O)c1ncccc1C2=O`, the GI50 was 0.449 µM in the assay with PC-3 prostate; 0.849 µM with UACC-257 melanoma; 0.317 µM with HCT-116 colon; 3.06 µM with MOLT-4 leukemia; 0.5 µM in the assay with SF-295 CNS; 0.436 µM in the assay with NCI/ADR-RES ovarian. In addition, the GI50 in the assay on SNB-75 CNS is 1.72 µM; in the assay on NCI-H226 lung, 0.51 µM; in the assay on CAKI-1 renal it was 0.0562 µM; in the assay on KM12 colon, 0.539 µM. For the same compound, the TGI amounted to 7.63 µM with PC-3 prostate; 6.37 µM with UACC-257 melanoma; 3.91 µM in the assay with HCT-116 colon; 23.7 µM in the assay on MOLT-4 leukemia; 3.69 µM in the assay on SF-295 CNS; 6.82 µM in the assay with NCI/ADR-RES ovarian. Besides, the TGI with SNB-75 CNS was 64.9 µM; in the assay on NCI-H226 lung, 5.11 µM; in the assay with CAKI-1 renal, 21.8 µM; with KM12 colon it was 18.9 µM.
In the case of `O=C(Nc1cccc2ccccc12)c1cc2ccccc2cc1O`, the GI50 was 2 µM in the assay with PC-3 prostate; 1.6 µM with UACC-257 melanoma; 2.85 µM in the assay with HCT-116 colon; 3.08 µM in the assay on MOLT-4 leukemia; 1.83 µM with SF-295 CNS; 2.17 µM in the assay with NCI/ADR-RES ovarian. The GI50 in the assay with SNB-75 CNS was 1.6 µM; in the assay on NCI-H226 lung, 2.5 µM; in the assay on CAKI-1 renal, 1.75 µM; in the assay on KM12 colon, 2.73 µM. For the same compound, the TGI came to 8.48 µM in the assay with PC-3 prostate; 5.03 µM with UACC-257 melanoma; 12 µM in the assay on HCT-116 colon; 21.5 µM with MOLT-4 leukemia; 4.32 µM with SF-295 CNS; 8.07 µM in the assay on NCI/ADR-RES ovarian. Further, the TGI was 6.11 µM with SNB-75 CNS, 9.42 µM in the assay on NCI-H226 lung, 4.52 µM in the assay with CAKI-1 renal and 8.01 µM with KM12 colon.
In the assay with PC-3 prostate, `COC(=O)C12OCC34C(CC5C(C)=CC(=O)C(O)C5(C)C3C(O)C1O)OC(=O)C(OC(=O)CC(C)C)C24` (stereo unspecified) had a TGI of 0.0121 µM. Further, the GI50 in the assay on UACC-257 melanoma is 0.0788 µM and 0.05 µM; in the assay on SF-295 CNS it was 0.077 µM; with NCI/ADR-RES ovarian, 0.288 µM; in the assay on SNB-75 CNS, 0.0825 µM and 0.05 µM; with NCI-H226 lung it was under 0.0345 µM; in the assay with CAKI-1 renal, 0.12 µM and 0.0876 µM. Besides, in the assay on KM12 colon, the GI50 is 0.0511 µM and 0.05 µM.
As to `CCNCCNc1cc(C2CCCC2)c(C#N)c2nc3ccccc3n12`, the GI50 is 6.1 µM in the assay with PC-3 prostate; 2.58 µM in the assay with UACC-257 melanoma; 1.95 µM with HCT-116 colon; 1.7 µM in the assay on SF-295 CNS; 4.55 µM in the assay on NCI/ADR-RES ovarian; 1.63 µM with SNB-75 CNS. Besides, the GI50 in the assay on NCI-H226 lung was 3.49 µM; with CAKI-1 renal, 3.59 µM; in the assay on KM12 colon, 4.64 µM. Moreover, the TGI in the assay with PC-3 prostate is 19.3 µM; in the assay on UACC-257 melanoma, 4.74 µM; in the assay on HCT-116 colon, 3.89 µM; in the assay on SF-295 CNS it was 3.46 µM; with NCI/ADR-RES ovarian, 19 µM; with SNB-75 CNS, 4.02 µM. The TGI in the assay with NCI-H226 lung was 17.5 µM; with CAKI-1 renal, 14.5 µM; in the assay on KM12 colon, 16.6 µM.
As to `COc1cccc(-c2cc(NCc3ccc4c(c3)OCO4)nc(N)n2)c1`, the GI50 is 0.0868 µM in the assay on PC-3 prostate; 0.0473 µM in the assay on HCT-116 colon; 0.11 µM in the assay on MOLT-4 leukemia; 0.0597 µM in the assay on SF-295 CNS; 0.0458 µM with NCI/ADR-RES ovarian; 0.0368 µM in the assay with SNB-75 CNS. For the same compound, the GI50 was 11.7 µM in the assay with NCI-H226 lung, 1.06 µM in the assay with CAKI-1 renal and 0.072 µM in the assay on KM12 colon. Further, the TGI with PC-3 prostate is 48.3 µM; in the assay on HCT-116 colon, 11.6 µM; in the assay with MOLT-4 leukemia, 12.8 µM; with SF-295 CNS it was 14.4 µM; in the assay on NCI/ADR-RES ovarian it was 0.494 µM; in the assay on SNB-75 CNS it was 14.4 µM. Besides, the TGI in the assay on NCI-H226 lung came to 32.5 µM; with CAKI-1 renal, 32.4 µM; in the assay with KM12 colon, 8.18 µM.
As to `Cc1ccc(C2CC(c3cccc(Nc4ccncc4)c3)=NN2c2ccc(Cl)cc2)cc1` (stereo unspecified), the GI50 was 1.59 µM in the assay on PC-3 prostate; 1.84 µM with HCT-116 colon; 1.85 µM in the assay with MOLT-4 leukemia; 1.79 µM with SF-295 CNS; 1.87 µM in the assay on NCI/ADR-RES ovarian; 1.36 µM with SNB-75 CNS. Also, the GI50 in the assay with NCI-H226 lung is 1.87 µM; in the assay with CAKI-1 renal, 1.51 µM; in the assay on KM12 colon it was 1.62 µM. Further, the TGI in the assay on PC-3 prostate was 3.08 µM; in the assay on HCT-116 colon, 3.71 µM; in the assay on MOLT-4 leukemia, 4.12 µM; in the assay on SF-295 CNS, 3.19 µM; in the assay on NCI/ADR-RES ovarian it was 3.88 µM; in the assay with SNB-75 CNS, 2.87 µM. The TGI came out at 3.76 µM with NCI-H226 lung, 2.97 µM in the assay with CAKI-1 renal and 2.99 µM with KM12 colon.
Take `Clc1cccc(Cc2cn3cc(-c4ccccc4)nc3s2)c1`: the GI50 with PC-3 prostate is 14.4 µM; in the assay on UACC-257 melanoma, 10.3 µM; in the assay with HCT-116 colon, 9.36 µM; in the assay with MOLT-4 leukemia it was over 100 µM; in the assay with NCI/ADR-RES ovarian, 3.49 µM; with SNB-75 CNS, 21.2 µM. The values for the GI50 with NCI-H226 lung, with CAKI-1 renal and in the assay on KM12 colon were 49.2 µM, 2.68 µM and 1.99 µM, respectively. Also, the TGI in the assay with PC-3 prostate is over 100 µM; in the assay on UACC-257 melanoma it was over 100 µM; with HCT-116 colon, over 100 µM; with MOLT-4 leukemia, over 100 µM; in the assay with NCI/ADR-RES ovarian it was over 100 µM; in the assay with SNB-75 CNS, 76.7 µM. Besides, the TGI in the assay on NCI-H226 lung, with CAKI-1 renal and in the assay with KM12 colon was over 100 µM each time.
For `O=C(O)c1cn(C2CC2)c2cc(N3CCN(C(=O)Nc4nc(-c5ccc(Cl)cc5)cs4)CC3)c(F)cc2c1=O`, the GI50 is 2.7 µM in the assay on PC-3 prostate; 2.92 µM with UACC-257 melanoma; 1.12 µM with HCT-116 colon; 3.03 µM with SF-295 CNS; 4.21 µM in the assay with NCI/ADR-RES ovarian; 2.25 µM in the assay with SNB-75 CNS. The GI50 with NCI-H226 lung is 3.23 µM; in the assay on CAKI-1 renal it was 3.81 µM; in the assay on KM12 colon, 2.15 µM. Moreover, the TGI is over 100 µM in the assay on PC-3 prostate; 8.24 µM with UACC-257 melanoma; over 100 µM with HCT-116 colon; 23.7 µM with SF-295 CNS; over 100 µM in the assay on NCI/ADR-RES ovarian; 20.5 µM with SNB-75 CNS. The TGI in the assay on NCI-H226 lung is 87.7 µM; in the assay on CAKI-1 renal it was over 100 µM; in the assay on KM12 colon, over 100 µM.
